Experimental data published in patent publication US9428499B2, “Heterocyclyl compounds as MEK inhibitors” (LUPIN LIMITED, priority 2012, dated 2016).
Read-outs that look alike come from different tables or passages of the source.

What was measured:
ERK phosphorylation = test: Analysis of ERK phosphorylation (Alphascreen SureFire Phospho-ERK 1/2); type: cell-based, human and mouse; details: read-out: Minimum concentration (nM) required for ≧80% inhibition of pERK
In short: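 Human melanoma and human and mouse colon cancer cells were exposed to compounds for 1 h. Phospho-ERK1/2 was read by AlphaScreen SureFire. Percent inhibition was calculated from RFU relative to vehicle-treated and lysis-buffer controls.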

[1] = tested on: MEK phosphorylation (S218 and S222); test: Analysis of B-Raf-mediated MEK phosphorylation (Alphascreen SureFire Phospho-MEK); type: cell-based, human; details: read-out: % Inhibition of MEK phosphorylation, 1 h
Description: This assay was carried out with human melanoma cells. Cells were treated for 1 h with various concentrations of test compounds. MEK phosphorylation (S218 and S222) analysis was performed using the Alphascreen SureFire Phospho-MEK Kit (Perkin Elmer), by following the manufacturer's instructions. % inhibition of […] phosphorylation was determined as: 100−{(RFU test−RFU lysis buffer control)/(RFU vehicle treated control−RFU lysis buffer control)}×100.

[2] = cells treated for 1 h, human melanoma cells, human and mouse colon cancer cells
[3] = 1 nM, human melanoma cells, read-out: % Inhibition of MBK phosphorylation
[4] = 10 nM, human melanoma cells, read-out: % Inhibition of MBK phosphorylation
[5] = 100 nM, human melanoma cells, read-out: % Inhibition of MBK phosphorylation

SMILES	IC80 (ERK phosphorylation; [2]) [nM]	inhibition at 0.001 µM [1, 3] [%]	inhibition at 0.01 µM [1, 4] [%]	inhibition at 0.1 µM [1, 5] [%]	IC80 (ERK phosphorylation; 1 h) [nM]	inhibition at 0.001 µM ([1]; Homo sapiens) [%]	inhibition at 0.01 µM ([1]; Homo sapiens) [%]	inhibition at 0.1 µM ([1]; Homo sapiens) [%]
Cc1c(=O)n(C)c(Nc2ccc(I)cc2F)c2c(=O)n(C3CC3)c(=O)n(-c3cccc(C(=O)NC4CC4)c3)c12 [Compound 37, N-cyclopropyl-3-(3-cyclopropyl-5-((2-fluoro-4-iodophenyl)amino)-6,8-dimethyl-2,4,7-trioxo-3,4,6,7-tetrahydropyrido[4,3-d]pyrimidin-1(2H)-yl)benzamide]	1 to 3	54.7	85.9	92.4				
CNC(=O)COc1cccc(-n2c(=O)[nH]c(=O)c3c(Nc4ccc(I)cc4F)n(C)c(=O)c(C)c32)c1 [Compound 5, 2-(3-(5-((2-fluoro-4-iodophenyl)amino)-6,8-dimethyl-2,4,7-trioxo-3,4,6,7-tetrahydropyrido[4,3-d]pyrimidin-1(2H)-yl)phenoxy)-N-methylacetamide]	0.1 to 0.9	93.9	97.4	97.4				
Cc1c(=O)n(C)c(Nc2ccc(I)cc2F)c2c(=O)[nH]c(=O)n(-c3cccc(C4(C(N)=O)CC4)c3)c12 [Compound 77, 1-(3-(5-((2-fluoro-4-iodophenyl)amino)-6,8-dimethyl-2,4,7-trioxo-3,4,6,7-tetra hydropyrido[4,3-d]pyrimidin-1(2H)-yl)phenyl)cyclopropanecarboxamide]					0.1 to 0.9	49	67.8	85.5
Cc1c(=O)n(C)c(Nc2ccc(I)cc2F)c2c(=O)[nH]c(=O)n(-c3cccc(OCC(N)=O)c3)c12 [Compound 16, 2-(3-(5-((2-fluoro-4-iodophenyl)amino)-6,8-dimethyl-2,4,7-trioxo-3,4,6,7-tetrahydropyrido[4,3-d]pyrimidin-1(2H)-yl)phenoxy)acetamide]	1 to 3	89.2	93.3	94.7				
Cc1c(=O)n(C)c(Nc2ccc(I)cc2F)c2c(=O)n(C3CC3)c(=O)n(-c3cccc(CC(=O)N(C)C)c3)c12 [Compound 29, 2-(3-(3-cyclopropyl-5-((2-fluoro-4-iodophenyl)amino)-6,8-dimethyl-2,4,7-trioxo-3,4,6,7-tetrahydropyrido[4,3-d]pyrimidin-1(2H)-yl)phenyl)-N,N-dimethylacetamide]	0.1 to 0.9	52.9	72.9	76.4				
